The nature of data set [1]: DPPH radical quenching assay. The data set is classed as biochemical. The source says: Compound 2 (Chart 2) exists largely as the pyridol tautomer as confirmed by NMR. The reactivity of pyridol/pyridone based compounds such as chelidamic acid have shown reactivity with OH radicals in solution to form bis-pyridones and is a different mechanism than pyridine based compounds such as 1 (Chart 2). This reactivity is attributed to the enhanced antioxidant capacity observed. Chelidamic acid is the pyridone congener to the starting material used to produce 1. Therefore similar methodologies to produce 2 in gram scale quantities were employed.
As radicals are one product of miscompartmentalized metal ions, radical scavenging capability of compounds 1-3 (Chart 4) was tested using the DPPH assay. DPPH (2,2-diphenyl-1-picrylhydrazyl), is a dark purple (λmax=540 nm), stable free radical in solution that can be reduced to DPPHH in the presence of molecules with radical scavenging activity. This process results in a color change from dark purple to light yellow and can be followed spectroscopically by the decrease of the band at 540 nm. Applicants have, therefore, utilized this method to measure radical scavenging capability of their own organic molecules. BHT (butylhydroxytoluene) was used as a positive control due to its known antioxidant properties.
DPPH stock solution was prepared by dissolving 25 mg in 100 mL of absolute EtOH. The working radical solution was prepared by dilution with absolute EtOH to an absorbance of 1.3 at 512 nm. Stock solutions of the compounds tested were dissolved in DI H2O and EtOH 95% respectively and serial dilutions were made to get different concentrations. For the analysis 2 mL of the solutions were incubated with 2 mL of DPPH working solutions in the dark for 24 h. as well as 2 mL of DPPH working solution with 2 mL of H2O or EtOH to serve as blank. Analysis of the solutions was performed as follows: 1 mL of the sample solution was diluted with 1 mL of H2O shaken and the absorbance was measured at 515 nm.

A short description of a further data set: MTT cytotoxicity assay. The conditions noted are these: mouse, HT-22 hippocampal neuronal cells, HT-22 cells. The data set is classed as cell-based. As for the experimental part:
As these compounds show potential for future in vivo studies, the 3-(4,5-dimethythiazol-2-yl)-2,5-diphenyl tetrazolium bromide (MTT) assay was performed in order to test compounds 2, 3 of Chart 4 for cytotoxicity with HT-22 cells, which is a hippocampal neuronal cell line extracted from mice. This is a colorimetric assay that measures the mitochondrial activity of living cells in which MTT crosses into the mitochondria where it is reduced to media insoluble formazan (dark purple), which is later solubilized in DMSO and measured spectroscopically (λmax=540 nm). Since the reduction of MTT can only occur in living cells with undamaged mitochondria, this is a good assay to measure cell proliferation and cytotoxicity.
For the biological assays mouse hippocampal HT-22 cell line was used, incubated them at 37° C. in a humidified atmosphere 5% CO2, with Dulbecco's Modified Eagle Medium (500 ml) containing penicillin/streptomycin 100× (5 ml), Glutamine (100 mM, 5 ml), charcoal strip fetal bovine serum. […]
(3-(4,5-dimethylthiazol-2-yl)-2,5-diphenyltetrazolium bromide) cells were seeded in a 96 well plate with a density of 5000 cells per well (in 100 μL per well). […] Media is discarded again and 100 μL of DMSO are added to each well, rocked for 5 minutes and the absorbance (A510) was measured using a Molecular Devices Kinetic Microplate Reader.

Data set [2] is described as follows: ABTS radical assay standardized against Trolox. The data set is classed as biochemical. To be noted: ligand concentration 100 μM.
The nature of data set [3]: log K constants with Zn^II. Format: binding. The source says: (§1) The ligand is the backbone to PCTA, a potential MRI contrast agent explored in recent years and has been repurposed for Applicant's work.
Data set [4] is described as follows: log K constants with Cu^II. The data set is classed as binding.
From the text: as §1

Data set [5] concerns FRDA cells. Nature of the data set: Calcein AM viability assay with BSO. The data set is classed as cell-based, human. The conditions noted are these: Homo sapiens, 48 hour BSO 1 mM; for viability at 0.001 µM: compound 1 nM final, read-out: cell viability compared to untreated control cells. Here is the method:
(§2) FIG. 5 is a graph showing a Calcien AM viability assay of FRDA cells after 48 hour exposure to BSO [1 mM] with 1-4 [1 nM final].
(§3) FIG. 10 is a graph showing Calcein AM viability assay of FRDA cells after 48 hour exposure to BSO [1 mM] followed by addition of 2 [various concentrations].
(§4) FRDA cells have higher levels of ROS due to mitochondrial misfunction associated with frataxin expression and therefore serve as a good model for ROS protection. […] Calcein AM, a non-fluorescent, hydrophobic compound that easily permeates intact, live cells, was used as an indicator for cell viability.
(§5) This dose response is visualized in the fluorescent cell images shown in FIG. 11 with increased cell survival corresponding to increasing 2 in the nM range.

The subject of data set [6] is FRDA cells. Nature of the data set: DCFH-DA ROS assay with BSO. Format: cell-based, human. As for the experimental part: FIG. 6 is a graph showing DCFH-DA fluorescent response in FRDA cells after 12 hours exposure to BSO [1 mM] with 1-4 [4 nM].
FIG. 7 is a graph of DCFH-DA fluorescent response in FRDA cells after 12 hours exposure to BSO [1 mM] showing dose dependence with 1.
FIG. 9 is a graph of DCFH-DA fluorescent response in FRDA cells after 12 hours exposure to BSO [1 mM] showing dose dependence with 1 and 2.
The antioxidant activity of compound 1 compared to compounds 2-3 (Chart 1) was then studied using the cell-permeable fluorophore 2,7′-Dichlorodihydrofluorescin diacetate (DCFH-DA) as an indicator for ROS. DCFH-DA diffuses into cells and is deacetylated by cellular esterases to non-fluorescent 2′,7′-Dichlorodihydrofluorescin (DCFH). This species is subsequently oxidized to the highly fluorescent 2′,7′-Dichlorodihydrofluorescein (DCF) species in the presence of ROS. The fluorescent intensity is directly proportional to the amount of ROS present in cell cytosol. BSO (2-amino-4-(butylsulfonimidoyl)butanoic acid) was used to inhibit the first step of de novo glutathione synthesis, allowing us to observe the elevated intra-cellular [ROS] are thereby observed.
Cellular studies were carried out to evaluate the intra-cellular antioxidant efficacy and toxicity of compound 2 (Chart 2) compared to 1 using the cell-permeable fluorophore 2,7′-dichlorodihydrofluorescin diacetate (DCFH-DA) as an indicator for ROS. DCFH-DA diffuses into cells and is deacetylated by cellular esterases to non-fluorescent 2′,7′-dichlorodihydrofluorescin (DCFH) which is subsequently oxidized to the highly fluorescent 2′,7′-dichlorodihydrofluorescein (DCF) species in the presence of ROS. The fluorescence intensity is directly proportional to the amount of ROS present in cell cytosol.^11 BSO (2-amino-4-(butylsulfonimidoyl)butanoic acid) is a commonly used model for oxidative stress via inhibition of cytosolic glutathione synthesis resulting in elevated intra-cellular [ROS] and an increased fluorescent signal in the presence of DCFH (FIG. 9).

Data set [7] in a line: Calcein AM viability assay with BSO. Format: cell-based, human. The conditions noted are these: human, FRDA cells (fibroblasts from a Friedreich's Ataxia patient), BSO 1 mM alone, read-out: cell viability compared to control cells, BSO-alone. As for the experimental part:
as §2, §3, §4, §5

For data set [8], the system named is Aβ1-40. Nature of the data set: Turbidity assay of metal-induced amyloid aggregation. The data set is classed as biochemical. The conditions noted are these: for disaggregation of pre-formed metal-induced Aβ1-40 aggregates (turbidity): copper(II) or zinc(II) aggregates, ligand added afterwards. The source says: Metal ions (copper and zinc) bind to a histidine rich domain in amyloid producing Aβ in the form of insoluble plaques. This process has been comprehensively studied and described in a number of recent reviews. The aggregation of amyloid can be followed by simple spectroscopic techniques such as turbidity and tyrosine fluorescence studies. These methods were used to investigate the ability of 1 to dissociate pre-formed amyloid aggregates upon addition of metal ions, as well as prevent amyloid aggregation.
Metal ions bind to a histidine rich domain in amyloid producing Aβ in the form of insoluble plaques. This process has been extensively studied and described in a number of recent reviews.

In data set [9] the test system is Aβ1-40. The data set can be described thus: Tyr^10 fluorescence of Aβ1-40. The data set is classed as biochemical. The source says:
FIG. 2 is a graph showing the addition of ligands 1-4 to aggregated Aβ results in reconstitution of Tyr^10 fluorescence which was decreased due to aggregate formation.
To further determine the capability of 1 to prevent or disrupt metal-ion induced amyloid aggregation, Applicant's studied Tyr fluorescence intensity. Recent reports have also utilized the natural fluorescence of the native Tyr^10 in the Aβ1-40 sequence to study the conformational dynamics of amyloid folding as it relates to AD and/or production of H2O2. As Tyr^10 is located within proximity to the metal binding pocket in Aβ1-40 the fluorescence intensity of the phenolic side chain decreases during the folding process due to environmental changes that occur locally. This work was supported by circular dichroism spectra, which verified that fluorescence intensity decreased as the conformation of amyloid changed to beta-sheets. […] Applicant's hypothesis was that Tyr fluorescence intensity should be restored to control levels upon addition of compounds 1-4 (Chart 1) to a solution of pre-formed metal aggregates, as shown below in FIG. 2. […] Similar results were also obtained for amyloid samples co-incubated with 1-4 prior to metal ion addition.
The macrocyclic compound 2 (Chart 2) is also a chelator capable of preventing metal-induced amyloid formation as well as disaggregation. Metal ions bind to a histidine rich domain in amyloid producing Aβ in the form of insoluble plaques. This process has been extensively studied and described in a number of recent reviews. […] Moreover, amyloid aggregates formed by metal ion co-incubation can be disaggregated by the addition of compounds 1 or 2 (FIG. 12b).

The conditions of data set [10]: LA/DHLA; cited from earlier work.
The nature of data set [11]: Cu-ascorbate redox system with coumarin-3-carboxylic acid (CCA). The conditions noted are these: added after two minutes co-incubation with CCA. The data set is classed as biochemical. The source says:
As increased levels of ROS are associated with AD, Applicant's set out to investigate the antioxidant character of 1 compared to the heterocycles 2 and/or 3. […] Moreover, many of the pathways proposed to produce ROS leading to AD pathology involve metal ions. Applicant's therefore utilized the Cu-ascorbate redox system, Scheme 1, as a model to determine if the ligands could halt copper based redox activity under aerobic conditions:
Faller and co-workers employed this system to investigate the redox chemistry of amyloid systems with Cu. Coumarin-3-carboxylic acid (CCA), which generates fluorescent 7-hydroxy-CCA in the presence of hydroxyl radicals, was used to quantify the reduction of oxygen by copper redox-cycling in the presence of ascorbate.

As for `O=C(NCCNc1nc(N2CCNCCNCCNCC2)nc(N2CCNCCNCCNCC2)n1)c1cc2ccccc2oc1=O` [3 (Chart 4), N-(2-((4,6-di(1,4,7,10-tetraazacyclododecan-1-yl)-1,3,5-triazin-2-yl)amino)ethyl)-2-oxo-2H-chromene-3-carboxamide], in data set [1] (concentration dependent, concentrations not given), the “quenching of the DPPH radical” value was 52-64%. Besides, the EC50 at 48 h in “MTT cytotoxicity assay” came out at 125 µM.

As for `O=C(O)CN(CCN(CC(=O)O)CC(=O)O)CC(=O)O` [4 (Chart 1)], the “Trolox equivalents (ABTS radical)” value in data set [2] was 0.15 Trolox equivalents. For the same compound, the “log K constants Zn^II” value in [3] was determined as 8.41. Besides, the “log K constants Cu^II” value in data set [4] came out at 9.18. In addition, the viability at 0.001 µM with FRDA cells [5] was above 60%.

For the compound `CCCCS(=N)(=O)CCC(N)C(=O)O` (centres unmarked) [BSO, 2-amino-4-(butylsulfonimidoyl)butanoic acid, reference compound], in the data set on FRDA cells [6] (BSO 1 mM alone), the “increase in ROS, BSO-treated cells (positive control)” value was around 1.8 fold. The viability at 48 h, 1 mM in data set [7] is around 45%.

With `C1CNCCNCCNCCN1` [Compound 2 (Chart 1)], the “Trolox equivalents (ABTS radical)” value in data set [2] is 0.23 Trolox equivalents. Further, in the data set with Aβ1-40 [8], the “disaggregation of pre-formed metal-induced Aβ1-40 aggregates (turbidity)” value is listed as “Aβ dis-aggregating agents, which Applicant's studies corroborate”. Moreover, the “log K constants Zn^II” value in data set [3] was determined as 16. Besides, the “log K constants Cu^II” value in [4] is 23. Also, in the data set on FRDA cells [5], the viability at 0.001 µM was above 60%.

As to `Oc1cc2nc(c1)CNCCNCCNC2` [Compound 2 (Chart 2)], the “disaggregation of pre-formed metal-induced Aβ1-40 aggregates (turbidity)” value in the data set with Aβ1-40 [8] was “disaggregated”. Also, in the data set with Aβ1-40 [8] (ligand co-incubated with amyloid before copper(II) or zinc(II) addition), the “prevention of metal-induced Aβ1-40 aggregation (turbidity)” value is listed as “prevents formation of aggregations”. Besides, the “ability to reduce free radicals in solution (DPPH) versus 1” value in [1] is listed as “enhanced ability to reduce free radicals in solution”. In addition, in the data set on Aβ1-40 [9] (ligand added to pre-formed metal aggregates), the “reconstitution of Tyr^10 fluorescence of aggregated Aβ1-40” value is “equally effective”. Moreover, the “prevention of loss of Tyr^10 fluorescence of Aβ1-40” value in the data set with Aβ1-40 [9] (ligand co-incubated prior to metal ion addition, 24 hours) is given as “equally effective”. Besides, the “decrease of [ROS] compared to the untreated cells” value amounted to 33% in the data set on FRDA cells [6] (1.25 nM), 58% with FRDA cells [6] (12.5 nM), 75% in the data set on FRDA cells [6] (125 nM) and 87% with FRDA cells [6] (1.25 μM). Besides, in the data set on FRDA cells [5] (read-out: EC50 protection against BSO assault (Calcein AM)), the EC50 is 0.0315 ± 0.00496 µM.

Turning to `O=C(O)CCCCC1CCSS1` (stereo not drawn) [LA, α-lipoic acid], the redox potential in data set [10] is −320 mV.

Regarding `C1CNCCNCCNCCN1` [cyclen, 1,4,7,10-tetraazacyclododecane, reference compound], the “quenching of the DPPH radical” value in data set [1] (1250 μM) is “no activity”.

In the case of “Aβ1-40: beta-amyloid peptide 1-40 with histidine rich metal binding site [reference compound]”, the “7-hydroxy-CCA signal after addition to running Cu-ascorbate system” value in [11] is listed as “leveling of the 7-hydroxy-CCA signal”.

The values above are taken from patent US8969549B2, “Antioxidant small molecules aimed at targeting metal-based oxidative stress in neurogenerative disorders” (Texas Christian University, priority 2013, dated 2015).
